# Laboratory results published in patent US10172962B2, “Macromolecular delivery systems for non-invasive imaging, evaluation and treatment of arthritis and other inflammatory diseases” (University of Utah Research Foundation, priority 2004, dated 2019).
# Key:
# Format in all cases: in vivo, rat
# AIA rats [1] = assay: Treatment of AIA rats: ankle joint swelling (caliper diameter)
# Experimental: (§1) Male Lewis rats (175-200 g) were obtained from Charles River Laboratories (Portage, Mich.) and allowed to acclimate for at least one week. To induce arthritis, Mycobacterium Tuberculosis H37Ra (1 mg) and LA (5 mg) were mixed in paraffin oil (100 μL), sonicated and s.c. injected into the base of the rat's tail (20). The rats were then randomized into 3 rats/group. The progression of the joint inflammation was followed by measuring the diameter of the ankle joint with calipers. Special care was given to the rats as the inflammation developed to ensure availability and access to water and food. The MRI contrast agents used for the study were injected directly into the jugular vein while the animal was anesthetized with Ketamine and Xylazine.
# . Hydrazine was used as the targeting moiety, as it may bind to negative charged moieties on cartilage. The anti-arthritic drug, dexamethasone, was linked to the polymer backbone (P-Dex) via a pH sensitive hydrozone bond as illustrated in FIG. 6. The polymer with the hydrazine and dexamethasone attached was then injected into AIA rats (4/group) on day 13 after the induction of arthritis. A single dose of 10 mg (P-Dex)/kg was given. […]
# AIA rats [2] = assay: Treatment of AIA rats: bone mineral density by peripheral dual x-ray absorptiometry; details: 7/group, FIG. 8
# Experimental: The bone mineral density (BMD) of the bones in the arthritic joints was measured by peripheral dual x-ray absorptiometry (pDXA, Norland Medical Systems) adapted for small animals. For this the intact hind limbs were used and the scan region included the ankle and foot bones. The coefficient of variation between measurements was less than 1%.
# One of the significant impacts of rheumatoid arthritis inflammation is the damage to the bone in the joints, which is evident in FIG. 8 of the animals with no treatment (saline). […] However, such improvement can be greatly strengthened if Dex is conjugated to HPMA copolymer. […] A more dynamic factor to consider in the bone metabolism is the extent of bone erosion. The bone eroded surface directly correlates with the recruitment and activity of osteoclasts, which are the cells responsible for bone resorption and the development of bone damage. In FIG. 9, the bone erosion surface data for all the treatment groups is summarized. […] The histology analysis of the arthritic joints with different treatments also confirmed the superiority of the P-Dex treatment (FIG. 10).
# AIA rats [3] = assay: Visualization of plasma albumin accumulation with Evans blue dye in AIA rats
# Experimental: as §1
# (§2) Evans blue dye (EB, 10 mg/kg in saline) was injected into healthy and AIA rats via the tail vein. The extravasation and accumulation of dye in the areas of joint inflammation could be visually observed as appearance of the blue pigment. Photographs of the ankle and paws were taken before and 8 hours after injection.
# For this experiment, EB was injected into the rats 15 days after injection of the adjuvant. By this time, there is a robust inflammatory reaction evident in the ankle joints. […] Some deep blue spots were also observed on some digits of the paw. […]
# healthy rats = assay: Evans blue dye injection in healthy control rats; details: EB 10 mg/kg tail vein
# Experimental: as §2
# For this experiment, EB was injected into the rats 15 days after injection of the adjuvant. By this time, there is a robust inflammatory reaction evident in the ankle joints. […] Some deep blue spots were also observed on some digits of the paw. Photographs taken before and after injection of the EB dye confirm that the areas with dye accumulation correspond to those with marked inflammation.
Structure (SMILES),"ankle joint swelling after the injections on day 13 (AIA rats [1]; P-Dex single dose 10 mg/kg day 13, Dex same dose divided in 4 daily doses day 13-16)","course of inflammation after cessation of the daily Dex injections (AIA rats [1]; P-Dex single dose day 13, Dex 4 daily doses day 13-16)",bone mineral density (BMD) / bone preservation of the arthritic joints (AIA rats [2]),"accumulation of dye in inflamed paws (AIA rats [3]; AIA rats, EB 10 mg/kg tail vein, 15 days after adjuvant)",nonspecific transfer of dye to other tissues (AIA rats [3]; organs including liver and heart),localization of dye to joint areas (healthy rats)
"C[C@@H]1C[C@H]2[C@@H]3CCC4=CC(=O)C=C[C@]4(C)[C@@]3(F)[C@@H](O)C[C@]2(C)[C@@]1(O)C(=O)COP(=O)(O)O [Dex, Dexamethasone sodium phosphate]",dramatic decrease of ankle joint swelling,the inflammation rapidly got worse,can slow bone erosion,,,
"Cc1cc(-c2ccc(/N=N/c3ccc4c(S(=O)(=O)O)cc(S(=O)(=O)O)c(N)c4c3O)c(C)c2)ccc1/N=N/c1ccc2c(S(=O)(=O)O)cc(S(=O)(=O)O)c(N)c2c1O [EB, Evans blue]",,,,gradual accumulation of blue color in the inflamed hind paw and front paws,a slight blue staining was evident in some organs,the dye was not localized to joint areas
